This is an account of results in PMC8879095, “UHPLC-MS/MS Analysis of Antibiotics Transfer and Concentrations in Porcine Oral Fluid after Intramuscular Application” (Pharmaceuticals, 2022).

The nature of data set [1]: Antibiotic concentrations in porcine oral fluid after intramuscular application (UHPLC-MS/MS). It is filed as in vivo. The conditions noted are these: pigs, i.m.; for concentration in oral fluid at withdrawal period: at the end of the withdrawal period for tissues of each drug (Table 3); for time for which the analyte was present / quantified in oral fluid: sampling for 30 days. How it is done:
All animals were born in the sow farm (8000 DanBred sows) located in Northern Poland, after crossing ♀(♂Landrace × ♀Yorskshire) × ♂Duroc. Piglets were weaned after 4 weeks of lactation with an average weight of 6 kg and then moved to the weaner stable (23,000 weaners). After the next 7 weeks, animals were transported to the 9000-places fattening farm with an average body weight of 28 kg, where the trial was performed. All farms in the aforementioned three-phase model used weekly batches and an all-in all-out system. Specialist veterinary and production management care were provided in each location.
For the purpose of the study, 240 immunologically castrated boars were divided into 8 groups, 30 animals in each pen. For the control group, 30 pigs were used in separate pens. Their initial body weight was between 40 and 60 kg. Pigs were housed at 20–25 °C. Fatteners were fed ad libitum with antimicrobial-free water and feed provided by feeders throughout the study. Before the experiment, water and feed were checked for antimicrobials, and no antimicrobial treatments were administered to these pigs before. All animals in one pen were treated due to the same health issue using disposable needles and the same drug and dosage. Pens were separated from each other with concrete walls. The drugs and dosage administered to each experimental group with an indication of withdrawal period for tissues are listed in Table 3. The oral fluid samples were collected using three cotton ropes (70 cm length with 1 cm diameter) in each pen suspended separately for 25 min on the front wall of the pen with bottoms at the pigs’ shoulder height, away from water and feed.
The research material was one pooled sample of oral fluid from 10 pigs, in triplicate, per pen. Ropes were removed immediately after collection. The first oral fluid sample was collected 24 h after the first injection. The collection of each subsequent sample took place at the same time (11:30 A.M.) for 35 consecutive days. Additionally, oral fluid samples were collected from pigs not treated with any antibiotics. Oral fluid from each pen was pooled into one 50-mL Falcon plastic tube and centrifuged at 9447× rcf for 15 min. Centrifuged material was transferred to a 15 mL plastic tube and frozen at −20 °C until analysis.
Before the analysis, the oral fluid samples were centrifuged at 9447× rcf. Next, an aliquot (1 mL) of oral fluid was placed into a 2 mL polypropylene centrifuge tube, and the 30 µL of the internal standard at the concentration of 2 µg/mL was added. For the extraction of analysed antibiotics, 600 µL of 0.5% formic acid was added, vortexed for 30 s and centrifuged for 10 min at 9447× rcf. Then, the supernatant was filtered through a […] PVDF filter into an amber glass vial before chromatographic analysis.
The mass spectrometry detection was operated in the positive ESI mode with multiple reaction monitoring (MRM).

On the set-up of data set [2]: method as in PMID 14651045, PMID 14651045. The conditions noted are these: cited from earlier work.
For data set [3] the following is noted: organic acid; cited from earlier work.
On the set-up of data set [4]: method as in PMID 28042939. The conditions noted are these: 21st day, i.m., cited from earlier work.
Setting [5] is: male, (Landrace × Yorkshire) × Duroc crossbred (DanBred sows), pig, intramuscular, oral fluid, time 1 d (24 h after first injection), treatment period, read-out: Avarage Concentrations in oral fluid.
[6] abbreviates: male, (Landrace × Yorkshire) × Duroc crossbred (DanBred sows), pig, intramuscular, oral fluid, treatment period, read-out: Avarage Concentrations in oral fluid.
Setting [7] is: male, (Landrace × Yorkshire) × Duroc crossbred (DanBred sows), pig, intramuscular, oral fluid, posttreatment, read-out: Avarage Concentrations in oral fluid.
The mark [8] stands for this setting: oral fluid, time 1 d (24 h after first injection), treatment period.
The mark [9] stands for this setting: oral fluid, time 9 d, posttreatment.
The mark [10] stands for this setting: oral fluid, time 10 d, posttreatment.
[11] abbreviates: oral fluid, time 11 d, posttreatment.
The mark [12] stands for this setting: oral fluid, time 12 d, posttreatment.
The mark [13] stands for this setting: oral fluid, time 13 d, posttreatment.
Setting [14] is: oral fluid, time 14 d, posttreatment.
Where [15] appears, read: oral fluid, time 15 d, posttreatment.
Setting [16] is: oral fluid, time 16 d, posttreatment.
The mark [17] stands for this setting: oral fluid, time 17 d, posttreatment.
Where [18] appears, read: oral fluid, time 18 d, posttreatment.
Where [19] appears, read: oral fluid, time 19 d, posttreatment.
Where [20] appears, read: oral fluid, time 20 d, posttreatment.
[21] abbreviates: oral fluid, time 21 d, posttreatment.
Where [22] appears, read: oral fluid, time 22 d, posttreatment.
The mark [23] stands for this setting: oral fluid, time 23 d, posttreatment.
Setting [24] is: oral fluid, time 24 d, posttreatment.
Setting [25] is: oral fluid, time 25 d, posttreatment.
Where [26] appears, read: oral fluid, time 26 d, posttreatment.
[27] abbreviates: oral fluid, time 27 d, posttreatment.
Setting [28] is: oral fluid, time 28 d, posttreatment.
The mark [29] stands for this setting: oral fluid, time 29 d, posttreatment.
The mark [30] stands for this setting: oral fluid, time 30 d, posttreatment.

Like-named read-outs stand apart in the source and are kept apart here. Where only a bound is given, the exact number is not on record here.

As for `CC1(C)S[C@@H]2[C@H](NC(=O)[C@H](N)c3ccc(O)cc3)C(=O)N2[C@H]1C(=O)O` [AMX, amoxicillin], in data set [1] (setting [5]), the concentration at 1 d turned out to be 11.3 ng/mL. Also, the concentration at 2 d in data set [1] (setting [6]) came out at 15.2 ± 2.3 ng/mL. Also, the concentration at 3 d in data set [1] (setting [6]) came out at 14.6 ± 1.8 ng/mL. In data set [1] (setting [7]), the concentration at 4 d worked out at 11.4 ± 1.4 ng/mL. In addition, the concentration at 5 d in data set [1] (setting [7]) came out at 11.2 ± 1.6 ng/mL. In addition, in data set [1] (oral fluid), the “concentration in oral fluid at withdrawal period” value is “below the limit of quantification”. In addition, the “time for which the analyte was present / quantified in oral fluid” value in data set [1] (oral fluid) came to 5 days. Further, the “Avarage Concentrations in oral fluid” value is reported as 11.3 ± 1.6 µg/L in data set [1] (setting [8]); “<LOQ” in data set [1] (oral fluid, time 6 d, posttreatment); “<LOQ” in data set [1] (oral fluid, time 7 d, posttreatment); “<LOQ” in data set [1] (oral fluid, time 8 d, posttreatment); “<LOQ” in data set [1] (setting [9]); “<LOQ” in data set [1] (setting [10]). Besides, the “Avarage Concentrations in oral fluid” value was “<LOQ *” in data set [1] (setting [11]); “<LOQ” in data set [1] (setting [12]); “<LOQ” in data set [1] (setting [13]); “<LOQ” in data set [1] (setting [14]); “<LOQ” in data set [1] (setting [15]); “<LOQ” in data set [1] (setting [16]). For the same compound, the “Avarage Concentrations in oral fluid” value in data set [1] (setting [17]), in data set [1] (setting [18]), in data set [1] (setting [19]), in data set [1] (setting [20]), in data set [1] (setting [21]) and in data set [1] (setting [22]) was “<LOQ” each time. The “Avarage Concentrations in oral fluid” value in data set [1] (setting [23]), in data set [1] (setting [24]), in data set [1] (setting [25]), in data set [1] (setting [26]), in data set [1] (setting [27]) and in data set [1] (setting [28]) was “<LOQ” in each case. The “Avarage Concentrations in oral fluid” value in data set [1] (setting [29]) and in data set [1] (setting [30]) was “<LOQ” in each case. For the same compound, the “distribution to oral fluid” value in data set [1] (conclusion in words) is given as “low penetration”. In data set [2], the “binding degree to plasma proteins” value was “≈ 25%”.

As usually defined, the pKa is the pH at which an ionisable group is half protonated. Regarding `CC1(C)S[C@@H]2[C@H](NC(=O)Cc3ccccc3)C(=O)N2[C@H]1C(=O)O` [PEN G, penicillin G], the pKa in data set [3] is recorded as 2.7. Moreover, in data set [1] (setting [5]), the concentration at 1 d stood at 93 ng/mL. For the same compound, the concentration at 2 d in data set [1] (setting [6]) came to 50 ± 15 ng/mL. Besides, the concentration at 3 d in data set [1] (setting [6]) was determined as 11 ± 4.6 ng/mL. The concentration at 4 d in data set [1] (setting [7]) was 16 ± 5.4 ng/mL. Also, the concentration at 5 d in data set [1] (setting [7]) stood at 5.2 ± 1.1 ng/mL. In addition, the concentration at 6 d in data set [1] (male, (Landrace × Yorkshire) × Duroc crossbred (DanBred sows), pig, intramuscular, oral fluid, time 6 d, posttreatment, read-out: Avarage Concentrations in oral fluid) is 52 ± 13 ng/mL. In data set [1] (male, (Landrace × Yorkshire) × Duroc crossbred (DanBred sows), pig, intramuscular, oral fluid, time 7 d, posttreatment, read-out: Avarage Concentrations in oral fluid), the concentration at 7 d turned out to be 32 ± 7.2 ng/mL. Moreover, the concentration at 8 d in data set [1] (male, (Landrace × Yorkshire) × Duroc crossbred (DanBred sows), pig, intramuscular, oral fluid, time 8 d, posttreatment, read-out: Avarage Concentrations in oral fluid) came out at 6 ± 1.2 ng/mL. Also, in data set [1] (oral fluid), the “concentration in oral fluid at withdrawal period” value is listed as “below the limit of quantification”. In addition, the “time for which the analyte was present / quantified in oral fluid” value in data set [1] (oral fluid) is on record as 8 days. Also, the “Avarage Concentrations in oral fluid” value in data set [1] (setting [8]) is given as 93 ± 21 µg/L; in data set [1] (setting [9]), “<LOQ *”; in data set [1] (setting [10]) it was “<LOQ”; in data set [1] (setting [11]), “<LOQ”; in data set [1] (setting [12]), “<LOQ”; in data set [1] (setting [13]), “<LOQ”. For the same compound, the “Avarage Concentrations in oral fluid” value in data set [1] (setting [14]), in data set [1] (setting [15]), in data set [1] (setting [16]), in data set [1] (setting [17]), in data set [1] (setting [18]) and in data set [1] (setting [19]) was “<LOQ” throughout. For the same compound, the “Avarage Concentrations in oral fluid” value in data set [1] (setting [20]), in data set [1] (setting [21]), in data set [1] (setting [22]), in data set [1] (setting [23]), in data set [1] (setting [24]) and in data set [1] (setting [25]) was “<LOQ” in each case. The “Avarage Concentrations in oral fluid” value in data set [1] (setting [26]), in data set [1] (setting [27]), in data set [1] (setting [28]), in data set [1] (setting [29]) and in data set [1] (setting [30]) was “<LOQ” throughout.

In the case of `CN(C)[C@@H]1C(O)=C(C(N)=O)C(=O)[C@@]2(O)C(O)=C3C(=O)c4c(O)cccc4[C@@](C)(O)[C@H]3[C@H](O)[C@@H]12` [oxytetracycline], the “concentration in oral fluid at the withdrawal period” value was 30.8 µg/kg in data set [4] (group where all pigs were treated) and 11.6 µg/kg in data set [4] (group where the antibiotic was administered to half of the animals in one pen).
